This passage reports MIC results from ChEMBL document CHEMBL3611970, “Synthesis and evaluation of isatin-β-thiosemicarbazones as novel agents against antibiotic-resistant Gram-positive bacterial species” (2015).

In brackets after ≈: the same amount, converted by molar mass. Some results are limits rather than exact numbers.

Common to all, as to format: functional
In test [1] the test system is Staphylococcus aureus. The experiment in a line: Antimicrobial activity against methicillin-resistant Staphylococcus aureus Chaoyang clinical isolate after 16 hrs by broth microdilution method. (In general: Dilution methods test growth across graded concentrations, often in twofold steps.)
Test [2] relates to Staphylococcus aureus. The experiment in a line: Antimicrobial activity against Staphylococcus aureus ATCC 6538 after 16 hrs by broth microdilution method. The settings on record: ATCC 6538, 16 h.
The subject of another test is Bacillus spizizenii. In words: Antimicrobial activity against Bacillus subtilis ATCC 6633 after 16 hrs by broth microdilution method. Conditions: ATCC 6633, 16 h.
In test [3] the test system is Enterococcus faecalis. The experiment in a line: Antimicrobial activity against vancomycin-susceptible Enterococcus faecalis after 16 hrs by broth microdilution method.
The test system of test [4] is Enterococcus faecalis. The experiment in a line: Antimicrobial activity against Enterococcus faecalis VRE-309 after 16 hrs by broth microdilution method. Conditions: VRE-309, 16 h.
Another test relates to Pseudomonas aeruginosa. In words: Antimicrobial activity against Pseudomonas aeruginosa PAO1 after 16 hrs by broth microdilution method. The settings on record: PAO1, 16 h.
The test system of the next test is Klebsiella pneumoniae. In words: Antimicrobial activity against Klebsiella pneumoniae KP-249 clinical isolate after 16 hrs by broth microdilution method. The settings on record: KP-249, 16 h.
Test [5] has as its system Staphylococcus aureus. The experiment in a line: Antimicrobial activity against methicillin-resistant Staphylococcus aureus 309-4 clinical isolate after 16 hrs by broth microdilution method. The settings on record: 309-4, 16 h.
For test [6], the system named is Staphylococcus aureus. In words: Antimicrobial activity against methicillin-resistant Staphylococcus aureus 6281 clinical isolate after 16 hrs by broth microdilution method. Conditions: Staphylococcus aureus, 6281, 16 h.
The test system of test [7] is Staphylococcus aureus. The experiment in a line: Antimicrobial activity against methicillin-resistant Staphylococcus aureus 309-8 clinical isolate after 16 hrs by broth microdilution method. The settings on record: 309-8, 16 h.
Test [8] has as its system Staphylococcus aureus. The experiment in a line: Antimicrobial activity against methicillin-resistant Staphylococcus aureus 6-42 clinical isolate after 16 hrs by broth microdilution method. The settings on record: 6-42, 16 h.
In test [9] the test system is Staphylococcus aureus. The experiment in a line: Antimicrobial activity against methicillin-resistant Staphylococcus aureus 8-21 clinical isolate after 16 hrs by broth microdilution method. Conditions: 8-21, 16 h.
Test [10] has as its system Staphylococcus aureus. In words: Antimicrobial activity against methicillin-resistant Staphylococcus aureus 309-3 clinical isolate after 16 hrs by broth microdilution method. Conditions: 309-3, 16 h.
Test [11] has as its system Staphylococcus aureus. The experiment in a line: Antimicrobial activity against methicillin-resistant Staphylococcus aureus 309-1 clinical isolate after 16 hrs by broth microdilution method. Conditions: 309-1, 16 h.
For test [12], the system named is Staphylococcus aureus. In words: Antimicrobial activity against methicillin-resistant Staphylococcus aureus 309-7 clinical isolate after 16 hrs by broth microdilution method. The settings on record: 309-7, 16 h.
For test [13], the system named is Staphylococcus aureus. In words: Antimicrobial activity against methicillin-resistant Staphylococcus aureus 8-24 clinical isolate after 16 hrs by broth microdilution method. Conditions: 8-24, 16 h.
Test [14] has as its system Staphylococcus aureus. The experiment in a line: Antimicrobial activity against methicillin-resistant Staphylococcus aureus 309-6 clinical isolate after 16 hrs by broth microdilution method. Conditions: 309-6, 16 h.

`O=C1Nc2c(Cl)cccc2/C1=N/NC(=S)Nc1ccccc1`: the MIC is 0.78 µg/mL (≈ 2.36 µM) against Staphylococcus aureus [1]; 1.56 µg/mL (≈ 4.72 µM) in the test on Staphylococcus aureus [2]; no more than 0.78 µg/mL in the test with Bacillus spizizenii; 6.25 µg/mL (≈ 18.9 µM) against Enterococcus faecalis [3]; 3.12 µg/mL (≈ 9.43 µM) in the test with Enterococcus faecalis [4]; greater than 100 µg/mL in the test with Pseudomonas aeruginosa. Further, the minimal inhibitory concentration (MIC) against Klebsiella pneumoniae is greater than 100 µg/mL; against Staphylococcus aureus [5] it was 1.56 µg/mL (≈ 4.72 µM); against Staphylococcus aureus [6], 1.56 µg/mL (≈ 4.72 µM); against Staphylococcus aureus [7], 1.56 µg/mL (≈ 4.72 µM); in the test on Staphylococcus aureus [8] it was 3.12 µg/mL (≈ 9.43 µM); against Staphylococcus aureus [9], 3.12 µg/mL (≈ 9.43 µM). Also, the minimal inhibitory concentration (MIC) in the test with Staphylococcus aureus [10] stood at 6.25 µg/mL (≈ 18.9 µM); in the test on Staphylococcus aureus [11] it was 6.25 µg/mL (≈ 18.9 µM); against Staphylococcus aureus [12], 0.78 µg/mL (≈ 2.36 µM); in the test on Staphylococcus aureus [13], 1.56 µg/mL (≈ 4.72 µM); against Staphylococcus aureus [14], 6.25 µg/mL (≈ 18.9 µM).

For the compound `O=C1Nc2c(Cl)cccc2/C1=N/NC(=S)Nc1ccc(Cl)cc1`, the MIC in the test with Staphylococcus aureus [1] is 0.39 µg/mL (≈ 1.07 µM); in the test with Staphylococcus aureus [2], 1.56 µg/mL (≈ 4.27 µM); against Bacillus spizizenii it was no more than 0.78 µg/mL; against Enterococcus faecalis [3], 3.12 µg/mL (≈ 8.54 µM); in the test with Enterococcus faecalis [4], 1.56 µg/mL (≈ 4.27 µM); with Pseudomonas aeruginosa it was greater than 100 µg/mL. The minimum inhibitory concentration (MIC) in the test with Klebsiella pneumoniae is greater than 100 µg/mL; in the test on Staphylococcus aureus [5] it was 0.78 µg/mL (≈ 2.14 µM); with Staphylococcus aureus [6], 1.56 µg/mL (≈ 4.27 µM); against Staphylococcus aureus [7], 1.56 µg/mL (≈ 4.27 µM); against Staphylococcus aureus [8], 0.78 µg/mL (≈ 2.14 µM); against Staphylococcus aureus [9] it was 0.78 µg/mL (≈ 2.14 µM). Also, the MIC came out at 1.56 µg/mL (≈ 4.27 µM) against Staphylococcus aureus [10]; 0.78 µg/mL (≈ 2.14 µM) with Staphylococcus aureus [11]; 0.78 µg/mL (≈ 2.14 µM) against Staphylococcus aureus [12]; 1.56 µg/mL (≈ 4.27 µM) against Staphylococcus aureus [13]; 1.56 µg/mL (≈ 4.27 µM) in the test with Staphylococcus aureus [14].

As to `Cc1ccc(NC(=S)N/N=C2\C(=O)Nc3c(Cl)cccc32)cc1`, the MIC with Staphylococcus aureus [1] is 0.39 µg/mL (≈ 1.13 µM); against Staphylococcus aureus [2] it was 1.56 µg/mL (≈ 4.52 µM); in the test on Bacillus spizizenii, no more than 0.78 µg/mL; against Enterococcus faecalis [3] it was 6.25 µg/mL (≈ 18.1 µM); against Enterococcus faecalis [4], 3.12 µg/mL (≈ 9.05 µM); with Pseudomonas aeruginosa it was greater than 100 µg/mL. Further, the MIC is greater than 100 µg/mL against Klebsiella pneumoniae; 0.78 µg/mL (≈ 2.26 µM) in the test on Staphylococcus aureus [5]; 1.56 µg/mL (≈ 4.52 µM) in the test with Staphylococcus aureus [6]; 0.78 µg/mL (≈ 2.26 µM) with Staphylococcus aureus [7]; 0.78 µg/mL (≈ 2.26 µM) against Staphylococcus aureus [8]; 0.78 µg/mL (≈ 2.26 µM) in the test on Staphylococcus aureus [9]. Moreover, the MIC worked out at 0.78 µg/mL (≈ 2.26 µM) in the test with Staphylococcus aureus [10]; 0.78 µg/mL (≈ 2.26 µM) in the test on Staphylococcus aureus [11]; 0.78 µg/mL (≈ 2.26 µM) against Staphylococcus aureus [12]; 1.56 µg/mL (≈ 4.52 µM) in the test with Staphylococcus aureus [13]; 1.56 µg/mL (≈ 4.52 µM) with Staphylococcus aureus [14].

In the case of `Cc1ccccc1NC(=S)N/N=C1\C(=O)Nc2c(Cl)cccc21`, the MIC was 0.78 µg/mL (≈ 2.26 µM) with Staphylococcus aureus [1]; 1.56 µg/mL (≈ 4.52 µM) against Staphylococcus aureus [2]; no more than 0.78 µg/mL in the test with Bacillus spizizenii; 6.25 µg/mL (≈ 18.1 µM) with Enterococcus faecalis [3]; 3.12 µg/mL (≈ 9.05 µM) in the test with Enterococcus faecalis [4]; greater than 100 µg/mL with Pseudomonas aeruginosa. The MIC in the test with Klebsiella pneumoniae was greater than 100 µg/mL; with Staphylococcus aureus [5], 1.56 µg/mL (≈ 4.52 µM); against Staphylococcus aureus [6], 1.56 µg/mL (≈ 4.52 µM); in the test on Staphylococcus aureus [7], 1.56 µg/mL (≈ 4.52 µM); against Staphylococcus aureus [8], 0.78 µg/mL (≈ 2.26 µM); in the test on Staphylococcus aureus [9] it was 0.78 µg/mL (≈ 2.26 µM). For the same compound, the MIC against Staphylococcus aureus [10] was found to be 1.56 µg/mL (≈ 4.52 µM); in the test on Staphylococcus aureus [11], 1.56 µg/mL (≈ 4.52 µM); with Staphylococcus aureus [12], 0.78 µg/mL (≈ 2.26 µM); against Staphylococcus aureus [13], 1.56 µg/mL (≈ 4.52 µM); in the test on Staphylococcus aureus [14] it was 1.56 µg/mL (≈ 4.52 µM).

As for `Cc1cccc(NC(=S)N/N=C2\C(=O)Nc3c(Cl)cccc32)c1`, the MIC in the test on Staphylococcus aureus [1] was 0.78 µg/mL (≈ 2.26 µM); in the test on Staphylococcus aureus [2], 1.56 µg/mL (≈ 4.52 µM); against Bacillus spizizenii it was no more than 0.78 µg/mL; against Enterococcus faecalis [3], 6.25 µg/mL (≈ 18.1 µM); against Enterococcus faecalis [4], 3.12 µg/mL (≈ 9.05 µM); in the test with Pseudomonas aeruginosa, greater than 100 µg/mL. Also, the minimal inhibitory concentration (MIC) was greater than 100 µg/mL against Klebsiella pneumoniae; 1.56 µg/mL (≈ 4.52 µM) against Staphylococcus aureus [5]; 3.12 µg/mL (≈ 9.05 µM) with Staphylococcus aureus [6]; 1.56 µg/mL (≈ 4.52 µM) in the test with Staphylococcus aureus [7]; 0.78 µg/mL (≈ 2.26 µM) in the test on Staphylococcus aureus [8]; 0.78 µg/mL (≈ 2.26 µM) against Staphylococcus aureus [9]. Moreover, the MIC in the test on Staphylococcus aureus [10] stood at 1.56 µg/mL (≈ 4.52 µM); in the test with Staphylococcus aureus [11], 0.78 µg/mL (≈ 2.26 µM); with Staphylococcus aureus [12] it was 0.78 µg/mL (≈ 2.26 µM); in the test with Staphylococcus aureus [13] it was 1.56 µg/mL (≈ 4.52 µM); against Staphylococcus aureus [14], 1.56 µg/mL (≈ 4.52 µM).

Regarding `O=C1Nc2c(Br)cccc2/C1=N/NC(=S)Nc1ccc(F)cc1`, the minimum inhibitory concentration (MIC) in the test on Staphylococcus aureus [1] is 0.39 µg/mL (≈ 0.992 µM); in the test with Staphylococcus aureus [2], 1.56 µg/mL (≈ 3.97 µM); against Bacillus spizizenii, no more than 0.78 µg/mL; in the test with Enterococcus faecalis [3] it was 3.12 µg/mL (≈ 7.93 µM); against Enterococcus faecalis [4], 1.56 µg/mL (≈ 3.97 µM); in the test on Pseudomonas aeruginosa, greater than 100 µg/mL. In addition, the MIC is greater than 100 µg/mL in the test on Klebsiella pneumoniae; 0.78 µg/mL (≈ 1.98 µM) in the test with Staphylococcus aureus [5]; 1.56 µg/mL (≈ 3.97 µM) with Staphylococcus aureus [6]; 0.78 µg/mL (≈ 1.98 µM) against Staphylococcus aureus [7]; 0.78 µg/mL (≈ 1.98 µM) against Staphylococcus aureus [8]; 0.78 µg/mL (≈ 1.98 µM) in the test with Staphylococcus aureus [9]. The MIC was determined as 0.78 µg/mL (≈ 1.98 µM) in the test on Staphylococcus aureus [10]; 0.78 µg/mL (≈ 1.98 µM) against Staphylococcus aureus [11]; 0.39 µg/mL (≈ 0.992 µM) in the test on Staphylococcus aureus [12]; 1.56 µg/mL (≈ 3.97 µM) against Staphylococcus aureus [13]; 1.56 µg/mL (≈ 3.97 µM) in the test with Staphylococcus aureus [14].

Usually MIC stands for the lowest concentration that inhibits growth of the organism. Low values mean a more susceptible organism, high ones a less susceptible organism.
